In patent US20250195502A1, “APPLICATION OF TETRACYCLIC COMPOUND IN TREATMENT OF TUMORS” (SHANGHAI SHIJIANG BIOTECHNOLOGY CO., LTD, priority 2022, published 2025):

Each compound was assayed on NCI-H82 (human small cell lung cancer cell) (assay: Cell viability assay (Promega CellTiter-Glo), inhibitory effect on NCI-H82). Settings: 72 h, 3 days of culture.
Type: cell-based
Method in brief: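 After 3 days of culture with graded compound doses, ATP-based luminescence (CellTiter-Glo) gave the viability of human small cell lung cancer NCI-H82 cells, maintained in 10% FBS-containing RPMI1640. IC50 is the 50% inhibiting concentration.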

Row | SMILES | IC50 [nM]
1 | COc1ccc2cc3[n+](cc2c1OCCCCCCNC(=O)OC(C)(C)C)CCc1cc2c(cc1-3)OCO2 [compound AB31808] | 330
2 | COc1ccc(CCCc2c3[n+](cc4c(OC)c(OC)ccc24)CCc2cc4c(cc2-3)OCO4)cc1 [compound AB31809] | 440

What follows are compounds tested on SW48 (human colon adenocarcinoma cell) (assay: Cell viability assay (Promega CellTiter-Glo), inhibitory effect on SW48). Settings: 72 h, 3 days of culture.
Type: cell-based
Method in brief: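 IC50 derived from CellTiter-Glo ATP luminescence after 3-day culture with a compound dilution series; cells kept in Leibovitz's L-15 plus 10% fetal bovine serum.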

Row | SMILES | IC50 [nM]
3 | COc1ccc2cc3[n+](cc2c1OCCCCCCNC(=O)OC(C)(C)C)CCc1cc2c(cc1-3)OCO2 [compound AB31808] | 390
4 | COc1ccc(CCCc2c3[n+](cc4c(OC)c(OC)ccc24)CCc2cc4c(cc2-3)OCO4)cc1 [compound AB31809] | 560

These compounds were tested on G-401 (human renal carcinoma Wilms cell) (assay: Cell viability assay (Promega CellTiter-Glo), inhibitory effect on G-401). Settings: 72 h, 3 days of culture.
Type: cell-based
Method in brief: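 IC50 comes from luminescent ATP-based viability measured after 3 days of exposure to serially diluted compound. Cultures were kept in McCoy's 5a medium containing 10% fetal bovine serum.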

Row | SMILES | IC50 [nM]
5 | COc1ccc2cc3[n+](cc2c1OCCCCCCNC(=O)OC(C)(C)C)CCc1cc2c(cc1-3)OCO2 [compound AB31808] | 480
6 | COc1ccc(CCCc2c3[n+](cc4c(OC)c(OC)ccc24)CCc2cc4c(cc2-3)OCO4)cc1 [compound AB31809] | 530

What follows are compounds tested on MDA-MB-453 (breast cancer cell) (assay: Cell viability assay (Promega CellTiter-Glo), inhibitory effect on MDA-MB-453). Settings: Homo sapiens, 72 h, 3 days of culture.
Type: cell-based
Method in brief: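 IC50 comes from ATP-based CellTiter-Glo viability measured after 3 days of exposure to graded compound concentrations. Cultures were kept in L-15 medium containing 10% fetal bovine serum.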

Row | SMILES | IC50 [nM]
7 | COc1ccc2cc3[n+](cc2c1OCCCCCCNC(=O)OC(C)(C)C)CCc1cc2c(cc1-3)OCO2 [compound AB31808] | 280
8 | COc1ccc(CCCc2c3[n+](cc4c(OC)c(OC)ccc24)CCc2cc4c(cc2-3)OCO4)cc1 [compound AB31809] | 870

The compounds below were run on CFPAC-1 (human pancreatic cancer cell) (assay: Cell viability assay (Promega CellTiter-Glo), inhibitory effect on CFPAC-1). Settings: 72 h, 3 days of culture.
Type: cell-based
Method in brief: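 Viability readout via ATP content (CellTiter-Glo) after 3-day exposure to gradient-diluted compounds; IC50 reported. Cells: CFPAC-1, grown in IMDM plus 10% fetal bovine serum.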

Row | SMILES | IC50 [nM]
9 | COc1ccc2cc3[n+](cc2c1OCCCCCCNC(=O)OC(C)(C)C)CCc1cc2c(cc1-3)OCO2 [compound AB31808] | 7320
10 | COc1ccc(CCCc2c3[n+](cc4c(OC)c(OC)ccc24)CCc2cc4c(cc2-3)OCO4)cc1 [compound AB31809] | 15500

These compounds were tested on 786-O (clear cell renal cell adenocarcinoma cell) (assay: Cell viability assay (Promega CellTiter-Glo), inhibitory effect on 786-O). Settings: Homo sapiens, 786-0, 72 h, 3 days of culture.
Type: cell-based
Method in brief: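 Cell viability determined from ATP content (CellTiter-Glo) after 3-day exposure to compound dilution series, giving IC50. Cells: 786-O clear cell renal adenocarcinoma line in 10% FBS-containing RPMI1640 (+P/S).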

Row | SMILES | IC50 [nM]
11 | COc1ccc2cc3[n+](cc2c1OCCCCCCNC(=O)OC(C)(C)C)CCc1cc2c(cc1-3)OCO2 [compound AB31808] | 3900
12 | COc1ccc(CCCc2c3[n+](cc4c(OC)c(OC)ccc24)CCc2cc4c(cc2-3)OCO4)cc1 [compound AB31809] | 7880

Each compound was assayed on SF126 (human glioblastoma multiforme cell) (assay: Cell viability assay (Promega CellTiter-Glo), inhibitory effect on SF126). Settings: 72 h, SF-126, 3 days of culture, Table 3, read-out: inhibitory effect on SF-126 (IC50).
Type: cell-based
Method in brief: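 IC50 reflects 50% loss of CellTiter-Glo ATP signal in SF126 glioblastoma cells. Cells were cultured in 10% FBS-containing EMEM and treated with serially diluted compound for 3 days.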

Row | SMILES | IC50 [nM]
13 | COc1ccc2cc3[n+](cc2c1OCCCCCCNC(=O)OC(C)(C)C)CCc1cc2c(cc1-3)OCO2 [compound AB31808] | 4580
14 | COc1ccc(CCCc2c3[n+](cc4c(OC)c(OC)ccc24)CCc2cc4c(cc2-3)OCO4)cc1 [compound AB31809] | 10100

Same assay, conditions: SF-126, 72 h, SF126, 3 days of culture, Table 4, read-out: inhibitory effect on brain cell line SF126 (IC50)

Row | SMILES | IC50 [nM]
15 | COc1ccc2cc3[n+](cc2c1OCCCCCCNC(=O)OC(C)(C)C)CCc1cc2c(cc1-3)OCO2 [compound AB31808] | 4580
16 | COc1ccc(CCCc2c3[n+](cc4c(OC)c(OC)ccc24)CCc2cc4c(cc2-3)OCO4)cc1 [compound AB31809] | 10100

These compounds were tested on GB-1 (human brain glioblastoma cell) (assay: Cell viability assay (Promega CellTiter-Glo), inhibitory effect on GB-1). Settings: 72 h, 3 days of culture, Table 3, read-out: inhibitory effect on GB-1 (IC50).
Type: cell-based
Method in brief: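 Intracellular ATP measured by CellTiter-Glo served as the viability readout for IC50, taken 3 days after adding gradient-diluted compound. Cells were kept in 10% FBS-containing DMEM.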

Row | SMILES | IC50 [nM]
17 | COc1ccc2cc3[n+](cc2c1OCCCCCCNC(=O)OC(C)(C)C)CCc1cc2c(cc1-3)OCO2 [compound AB31808] | 5560
18 | COc1ccc(CCCc2c3[n+](cc4c(OC)c(OC)ccc24)CCc2cc4c(cc2-3)OCO4)cc1 [compound AB31809] | 11800

Same assay, conditions: 72 h, 3 days of culture, Table 4, read-out: inhibitory effect on brain cell line GB-1 (IC50)

Row | SMILES | IC50 [nM]
19 | COc1ccc2cc3[n+](cc2c1OCCCCCCNC(=O)OC(C)(C)C)CCc1cc2c(cc1-3)OCO2 [compound AB31808] | 5560
20 | COc1ccc(CCCc2c3[n+](cc4c(OC)c(OC)ccc24)CCc2cc4c(cc2-3)OCO4)cc1 [compound AB31809] | 11800

These compounds were tested on Kelly (brain neuroblastoma cell) (assay: Cell viability assay (Promega CellTiter-Glo), inhibitory effect on Kelly). Settings: Homo sapiens, 72 h, 3 days of culture, read-out: inhibitory effect on brain cell line Kelly (IC50).
Type: cell-based
Method in brief: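 Kelly cells were cultured in RPMI1640 with 10% FBS and 2 mM glutamine, then treated with serially diluted compounds for 3 days. Viability was measured as intracellular ATP by CellTiter-Glo luminescence, and IC50 was derived from the dose-response.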

Row | SMILES | IC50 [nM]
21 | COc1ccc2cc3[n+](cc2c1OCCCCCCNC(=O)OC(C)(C)C)CCc1cc2c(cc1-3)OCO2 [compound AB31808] | 1050
22 | COc1ccc(CCCc2c3[n+](cc4c(OC)c(OC)ccc24)CCc2cc4c(cc2-3)OCO4)cc1 [compound AB31809] | 990

These compounds were tested on NB-1 (brain neuroblastoma cell) (assay: Cell viability assay (Promega CellTiter-Glo), inhibitory effect on NB-1). Settings: Homo sapiens, 72 h, 3 days of culture, read-out: inhibitory effect on brain cell line NB-1 (IC50).
Type: cell-based
Method in brief: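 NB-1 cells grown in L-15 medium with 10% FBS were exposed to serially diluted compounds for 3 days after passage. Viability was read as intracellular ATP by CellTiter-Glo luminescence. IC50 was taken as the concentration giving 50% inhibition.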

Row | SMILES | IC50 [nM]
23 | COc1ccc2cc3[n+](cc2c1OCCCCCCNC(=O)OC(C)(C)C)CCc1cc2c(cc1-3)OCO2 [compound AB31808] | 60
24 | COc1ccc(CCCc2c3[n+](cc4c(OC)c(OC)ccc24)CCc2cc4c(cc2-3)OCO4)cc1 [compound AB31809] | 160

Each compound was assayed on D341 Med (cerebellar medulloblastoma cell) (assay: Cell viability assay (Promega CellTiter-Glo), inhibitory effect on D341 Med). Settings: Homo sapiens, 72 h, 3 days of culture, read-out: inhibitory effect on brain cell line D341 Med (IC50).
Type: cell-based
Method in brief: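 D341 Med cells grown in EMEM with 20% FBS (+P/S) were treated with serially diluted compounds after passage. Viability after 3 days of culture was read as intracellular ATP by CellTiter-Glo luminescence, and IC50 was derived.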

Row | SMILES | IC50 [nM]
25 | COc1ccc2cc3[n+](cc2c1OCCCCCCNC(=O)OC(C)(C)C)CCc1cc2c(cc1-3)OCO2 [compound AB31808] | 430
26 | COc1ccc(CCCc2c3[n+](cc4c(OC)c(OC)ccc24)CCc2cc4c(cc2-3)OCO4)cc1 [compound AB31809] | 1920

What follows are compounds tested on Con-NCI-H82 cell (NCI-H82 transfected with empty virus vector) (assay: Cell viability assay (Promega CellTiter-Glo), inhibitory effect on Con-NCI-H82 cell). Settings: Homo sapiens; NCI-H82 transfected with empty virus vector (control); CellTiter-Glo; read-out: inhibitory effect on Con-NCI-H82 (IC50).
Type: cell-based
Method in brief: (§1)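 Viability measured by CellTiter-Glo in three NCI-H82 variants: empty-vector control, viral NNMT overexpression, and viral shRNA DNMT1 knockdown, each checked by Western blot.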

Row | SMILES | IC50 [nM]
27 | COc1ccc2cc3[n+](cc2c1OCCCCCCNC(=O)OC(C)(C)C)CCc1cc2c(cc1-3)OCO2 [compound AB31808] | 330
28 | COc1ccc(CCCc2c3[n+](cc4c(OC)c(OC)ccc24)CCc2cc4c(cc2-3)OCO4)cc1 [compound AB31809] | 440

What follows are compounds tested on ov-NNMT NCI-H82 cell (NNMT protein-overexpressing NCI-H82) (assay: Cell viability assay (Promega CellTiter-Glo), inhibitory effect on ov-NNMT NCI-H82 cell). Settings: Homo sapiens.
Type: cell-based
Method in brief: as §1

Row | SMILES | IC50 [nM]
29 | COc1ccc2cc3[n+](cc2c1OCCCCCCNC(=O)OC(C)(C)C)CCc1cc2c(cc1-3)OCO2 [compound AB31808] | 860
30 | COc1ccc(CCCc2c3[n+](cc4c(OC)c(OC)ccc24)CCc2cc4c(cc2-3)OCO4)cc1 [compound AB31809] | 1380

These compounds were tested on sh-DNMT1 NCI-H82 cell (DNMT1 knocked down NCI-H82) (assay: Cell viability assay (Promega CellTiter-Glo), inhibitory effect on sh-DNMT1 NCI-H82 cell). Settings: Homo sapiens, NCI-H82 with DNMT1 knocked down by shRNA.
Type: cell-based
Method in brief: as §1

Row | SMILES | IC50 [nM]
31 | COc1ccc2cc3[n+](cc2c1OCCCCCCNC(=O)OC(C)(C)C)CCc1cc2c(cc1-3)OCO2 [compound AB31808] | 1040
32 | COc1ccc(CCCc2c3[n+](cc4c(OC)c(OC)ccc24)CCc2cc4c(cc2-3)OCO4)cc1 [compound AB31809] | 1860
